Tested on: 843782-103-R-J1-PDC complex spheroid viability
Experiment: Anticancer human tumor 843782-103-R-J1-PDC patient-derived lung adenocarcinoma cell line growth inhibition [RAS]
Conditions: for IC50: curve of first compound; for viability, T/C: stronger effect = lower value
Excerpt: RAS pathway inhibitors in Combinations in Complex Spheroids
A high-throughput screen of multi-cell type tumor spheroids was designed to identify active combinations of RAS pathway inhibitors and targeted small molecules. Complex spheroids include a stromal component modeled by human endothelial cells (HUVEC) and fibroblasts modeled by human mesenchymal stem cells (MSCs). The concentration ranges selected for each drug and investigational agent were based upon clinically achievable concentrations if the clinical Cmax of the agent was known.
Compounds. The drugs and investigational agents: abemaciclib (NSC768073), cobimetinib (NSC768068), divarasib (GDC6063, NSC841802), docetaxel (NSC628503), GDC-1971 (RLY-1971, NSC841576), gemcitabine (NSC613327), inavolisib (NSC800729), ipatasertib (NSC767898), KB-0742 (NSC834161), MRTX-1133 (NSC836407), osimertinib (NSC779217), RMC-4630 (NSC839698), RMC-6236 (NSC851965), RMC-6291 (NSC852671), Ro-3306 (NSC812927), sapanisertib (NSC764658), SN-38 (NSC673596), staurosporine (NSC755774), SY5609 (NSC837396), and tovorafenib (DAY101, NSC766906), were obtained from the National Cancer Institute (NCI) Developmental Therapeutics Program Chemical Repository. The FDA-approved anticancer drug set is available from the NCI Developmental Therapeutics Program. […] The stock solutions were prepared in dimethyl sulfoxide (DMSO, Sigma-Aldrich, St. Louis, MO, cat. D2650) at 800-fold the tested concentration and stored at -70 degrees C prior to their use. All drugs and investigational agents were tested over a range starting from a high concentration at or near the clinical Cmax and decreasing in half-log increments. If the clinical Cmax for an agent had not been determined, the highest concentration tested was 10 microM.
Cell Culture. All cells were maintained in an incubator at 37 degrees C and 5% CO2 with 95% humidity. The PDC lines were cultured according to standard operating procedures established by the NCI PDMR. All PDCs were thawed and cultured in Matrigel-coated flasks prepared with a working solution of 1X Ham's F-12 nutrient mix, without supplementation (Invitrogen, Waltham, MA, cat. 11765054), 100 U/mL penicillin-streptomycin (Invitrogen, cat. 15140122), and 2.5% Matrigel (Corning Inc., Corning, NY, cat. 354248) for the first three passages. The 362531-283-R-J2-PDC and 782815-120-R-J1-PDC lines were cultured in 6C/Colon 1B media, which includes advanced DMEM/F-12 (Thermo Fisher Scientific, cat. 12634028), 10 mM HEPES (Thermo Fisher Scientific, cat. 15630080), 1X GlutaMAX supplement (Thermo Fisher Scientific, cat. 35050061), 0.1 mg/mL primocin (InvivoGen, San Diego, CA, cat. ant-pm-2), 10% defined fetal bovine serum, heat inactivated (HyClone Laboratories Inc., Logan, UT, cat. SH30070.03HI), 50% L-WRN conditioned media (ATCC, cat. CRL-3276), 1.25 mM N-Acetyl-L-cysteine (Sigma-Aldrich, cat. A9165), 10 mM nicotinamide (Sigma-Aldrich, cat. N0636), 1X B-27 supplement (Thermo Fisher Scientific, cat. 17504044), 1X N-2 supplement (Thermo Fisher Scientific, cat. 17502048), 50 ng/mL human EGF (Thermo Fisher Scientific, cat. PHG0311), and 10 microM Y-27632 dihydrochloride (Tocris Bioscience, cat. 1254). The K12877-001-R-J1-PDC line was cultured in 6I media, which includes all 6C/Colon 1B media plus 10 ng/mL human FGF-10 (PeproTech, cat. 100-26), 1 ng/mL human FGF-2 (PeproTech, cat. 100-18B), 1 µM prostaglandin E2 (Tocris Bioscience, cat. 2296), […] hydrocortisone (Sigma-Aldrich, cat. H4001), and […] bovine insulin (Sigma-Aldrich, cat. I6634). The K86415-001-R-J1-PDC line was cultured in 6D media, which includes all 6C/Colon 1B media components minus the L-WRN conditioned media. The 485176-168-R4-J1-PDC was cultured in PANC media, which includes all 6C/Colon 1B media plus 100 ng/mL human FGF-10 (PeproTech, cat. 100-26), 500 nM SB-431542 (Selleckchem, cat. S1067), and 10 nM gastrin (Tocris Bioscience, cat. 3006). […]
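Also: viability read after seven days of compound exposure.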

Q: With `CCc1c2c(nc3ccc(O)cc13)-c1cc3c(c(=O)n1C2)COC(=O)[C@]3(O)CC` + C#Cc1c(F)ccc2cc(O)cc(-c3ncc4c(N5CC6CCC(C5)N6)nc(OCC56CCCN5CC(F)C6)nc4c3F)c12 as the compound, how does the IC50 (second compound 0.0316 µM) read?
A: The IC50 was 1.91 nM.

Q: What about the IC50 (second compound 0.1 µM) of the same compound?
A: Its IC50 is 2 nM.

Q: And the IC50 (second compound 0.316 µM)?
A: Its IC50 is 1.95 nM.

Q: And the IC50 (second compound 1 µM)?
A: The IC50 was 1.91 nM.

Q: And the IC50 (second compound 3.16 µM)?
A: The IC50 was 1.62 nM.

Q: What about the IC50 (second compound 10 µM) of the same compound?
A: Its IC50 is under 0.949 nM.

Q: What about the viability, T/C (second compound 0.0316 µM, first compound 0.000949 µM) of the same compound?
A: Its viability, T/C is 103%.

Q: And the viability, T/C (second compound 0.0316 µM, first compound 0.003 µM)?
A: The viability, T/C was 15.3%.

Q: And the viability, T/C (second compound 0.0316 µM, first compound 0.00949 µM)?
A: Its viability, T/C is 8.79%.

Q: What about the viability, T/C (second compound 0.0316 µM, first compound 0.03 µM) of the same compound?
A: The viability, T/C was 2.87%.

Q: And the viability, T/C (second compound 0.0316 µM, first compound 0.0949 µM)?
A: Its viability, T/C is 1.58%.

Q: And the viability, T/C (second compound 0.0316 µM, first compound 0.3 µM)?
A: The viability, T/C was 0.53%.

Q: And the viability, T/C (second compound 0.1 µM, first compound 0.000949 µM)?
A: Its viability, T/C is 104%.

Q: And the viability, T/C (second compound 0.1 µM, first compound 0.003 µM)?
A: Its viability, T/C is 19.6%.

Q: What about the viability, T/C (second compound 0.1 µM, first compound 0.00949 µM) of the same compound?
A: Its viability, T/C is 8.39%.

Q: What about the viability, T/C (second compound 0.1 µM, first compound 0.03 µM) of the same compound?
A: Its viability, T/C is 4.21%.

Q: And the viability, T/C (second compound 0.1 µM, first compound 0.0949 µM)?
A: Its viability, T/C is 1.08%.

Q: And the viability, T/C (second compound 0.1 µM, first compound 0.3 µM)?
A: Its viability, T/C is 0.68%.

Q: And the viability, T/C (second compound 0.316 µM, first compound 0.000949 µM)?
A: The viability, T/C was 96.8%.

Q: And the viability, T/C (second compound 0.316 µM, first compound 0.003 µM)?
A: Its viability, T/C is 20.8%.

Q: What about the viability, T/C (second compound 0.316 µM, first compound 0.00949 µM) of the same compound?
A: The viability, T/C was 8.99%.

Q: What about the viability, T/C (second compound 0.316 µM, first compound 0.03 µM) of the same compound?
A: Its viability, T/C is 3.62%.

Q: What about the viability, T/C (second compound 0.316 µM, first compound 0.0949 µM) of the same compound?
A: The viability, T/C was 1.15%.

Q: What about the viability, T/C (second compound 0.316 µM, first compound 0.3 µM) of the same compound?
A: Its viability, T/C is 0.74%.

Q: And the viability, T/C (second compound 1 µM, first compound 0.000949 µM)?
A: The viability, T/C was 85.5%.

Q: And the viability, T/C (second compound 1 µM, first compound 0.003 µM)?
A: The viability, T/C was 26.8%.

Q: What about the viability, T/C (second compound 1 µM, first compound 0.00949 µM) of the same compound?
A: Its viability, T/C is 7.99%.

Q: What about the viability, T/C (second compound 1 µM, first compound 0.03 µM) of the same compound?
A: The viability, T/C was 3.68%.

Q: What about the viability, T/C (second compound 1 µM, first compound 0.0949 µM) of the same compound?
A: Its viability, T/C is 1.44%.

Q: And the viability, T/C (second compound 1 µM, first compound 0.3 µM)?
A: Its viability, T/C is 0.87%.

Q: And the viability, T/C (second compound 3.16 µM, first compound 0.000949 µM)?
A: The viability, T/C was 73.4%.

Q: What about the viability, T/C (second compound 3.16 µM, first compound 0.003 µM) of the same compound?
A: Its viability, T/C is 21.8%.

Q: And the viability, T/C (second compound 3.16 µM, first compound 0.00949 µM)?
A: Its viability, T/C is 10.4%.

Q: What about the viability, T/C (second compound 3.16 µM, first compound 0.03 µM) of the same compound?
A: Its viability, T/C is 4.24%.

Q: What about the viability, T/C (second compound 3.16 µM, first compound 0.0949 µM) of the same compound?
A: The viability, T/C was 1.56%.

Q: What about the viability, T/C (second compound 3.16 µM, first compound 0.3 µM) of the same compound?
A: The viability, T/C was 0.77%.

Q: What about the viability, T/C (second compound 10 µM, first compound 0.000949 µM) of the same compound?
A: The viability, T/C was 42.2%.

Q: And the viability, T/C (second compound 10 µM, first compound 0.003 µM)?
A: Its viability, T/C is 12.1%.

Q: And the viability, T/C (second compound 10 µM, first compound 0.00949 µM)?
A: The viability, T/C was 9.81%.

Q: What about the viability, T/C (second compound 10 µM, first compound 0.03 µM) of the same compound?
A: Its viability, T/C is 3.11%.

Q: What about the viability, T/C (second compound 10 µM, first compound 0.0949 µM) of the same compound?
A: Its viability, T/C is 1.08%.

Q: And the viability, T/C (second compound 10 µM, first compound 0.3 µM)?
A: Its viability, T/C is 0.39%.
